Data reported in publication PMC2915651 (2010).

Experiments:
[1] = tested on: [d(TGGGGT)]4 (DNA, G4) TGGGGT; assay: ITC; conditions: 70 mM KCl; 20 mM phosphate, 0.1 mM EDTA, pH 7.0, 25 °C; identical sites, n = 2.0
[2] = tested on: d(CGCGAATTCGCG)2 (DNA, duplex) CGCGAATTCGCG; assay: ITC; conditions: 70 mM KCl; 20 mM phosphate, 0.1 mM EDTA, pH 7.0, 25 °C; no resolvable isotherm; ligand 600–700 μM into 30 μM DNA
[3] = tested on: [d(TGGGGT)]4 (DNA, G4) TGGGGT; assay: 1H NMR titration; conditions: 70 mM KCl; 10 mM phosphate, EDTA, pH 7.0, 25 °C; 2 mM quadruplex; fast exchange
[4] = tested on: d(CGCGAATTCGCG)2 (DNA, duplex) CGCGAATTCGCG; assay: 1H NMR titration; conditions: 70 mM KCl; 10 mM phosphate, EDTA, pH 7.0, 25 °C; 1 mM DNA; shifts at most 0.03 ppm at 2:1

Row | Compound | K b [1] | binding [2] | binding [3] | binding [4]
1 | Cn1cc(NC(=O)c2cc(NC(=O)CN=C(N)N)cn2C)cc1C(=O)NCCC(=N)N | 1.2 ± 0.1 × 10^6 M^-1 |  |  | 
2 | Cn1cc(NC(=O)c2cc(NC(=O)c3cc(N=CN)cn3C)cn2C)cc1C(=O)NCCC(=N)N | 1.9 ± 0.2 × 10^6 M^-1 | weak | yes | weak
